Laboratory results as given in US7708799B2, “Dithiocarbamates and phosphite formulations” (priority 2005, dated 2010).

Test system: Spores of the fungus Mycosphearella sp
Experiment: Spore germination test on amended water agar plates
Assay type: cell-based
Settings: agar amended with mancozeb alone at 100 ppm; 4×10^5 spores; 12 hours incubation
Description: The flowable Calcium formulation (named Calciphite) combination plus Mancozeb as described in the above example was tested for its ability to inhibit spore germination as compared to Mancozeb. Water agar plates were prepared and amended with the Calciphite/mancozeb combination (50 ppm) or mancozeb alone (100 ppm). Spores of the fungus Mycosphearella sp at a spore concentration of 4×10^5 were sprayed onto the surface of the plates and incubated for 12 hours after which the plates were assessed for germination.

mancozeb
% spore germination: 81%
